Measured values taken from US20260207572A1, “METHODS AND COMPOSITIONS FOR TREATMENT OF SUBJECTS WITH HEPATIC IMPAIRMENTS” (ELEVAR THERAPEUTICS, INC., priority 2022, published 2026).
Like-named read-outs stand apart in the source and are kept apart here.

Assay: Phase 1 single-dose plasma pharmacokinetics in subjects with normal hepatic function, mild or moderate hepatic impairment
Type: in vivo, human
Settings: for Plasma concentration, Arithmetic Mean / Plasma concentration, Median: Predose; for AUC(0-t) / AUC(0-inf) / Cmax / Vd/F / half-life / Tmax / concentration at 0.5 h / concentration at 1 h / concentration at 2 h / concentration at 3 h / concentration at 4 h / concentration at 6 h / concentration at 8 h / concentration at 12 h / concentration at 16 h / concentration at 24 h / concentration at 36 h / concentration at 48 h: human, plasma, 200 mg
Text: Patients: 27 subjects were enrolled within the following groups based on their Child-Pugh (CP) classification score: • Group 1: Matched-control healthy subjects with normal hepatic function; • Group 2: Subjects with mild hepatic impairment (CP Class A, score of 5 or 6); • Group 3: Subjects with moderate hepatic impairment (CP Class B, score of 7 to 9).
A parallel design strategy was adopted for the hepatic impairment groups. Each matched-control healthy subject (Group 1) was enrolled following the enrollment of a mild and/or moderate hepatic impairment subject and was demographically matched by age (±10 years), BMI (±20%), and sex to the enrolled hepatic impairment subject(s). Subjects with normal hepatic function were not matched to more than 1 hepatically-impaired subject within an impairment group; however, subjects with normal hepatic function could be matched to 1 subject from more than 1 hepatic impairment group.
Other noncompartmental parameters could be reported.
The paired t-test was performed separately for each hepatic impairment group and the corresponding matched healthy controls. Estimates of geometric mean ratios in primary PK parameters between each level of impaired hepatic function versus the matched healthy controls were presented along with the corresponding 90% confidence intervals (CIs) for the geometric mean ratios. The p-value assessing the difference between each impairment group and the healthy control group was presented.
The PK analysis was conducted by Covance Early Clinical Biometrics using WinNonlin Version 8.1.

[1] = Mild Hepatic Impairment, 200 mg single oral dose
[2] = Moderate Hepatic Impairment, 200 mg single oral dose
[3] = Normal Hepatic Function, 200 mg single oral dose
[4] = po, Mild Hepatic Impairment, 200 mg single oral dose, read-out: Plasma concentration, Arithmetic Mean
[5] = po, Mild Hepatic Impairment, 200 mg single oral dose, read-out: Plasma concentration, Geometric Mean
[6] = po, Mild Hepatic Impairment, 200 mg single oral dose, read-out: Plasma concentration, Median

SMILES: N#CC1(c2ccc(NC(=O)c3cccnc3NCc3ccncc3)cc2)CCCC1 [Rivoceranib, N-[4-(1-cyanocyclopentyl)phenyl]-2-{[(pyridin-4-yl)methyl]amino} pyridine-3-carboxamide]
- AUC0-∞, Geometric Mean [1]: 2308.66 ng·h/mL
- CL/F, Arithmetic Mean [1]: 103.183 L/h
- CL/F, Geometric Mean [1]: 86.630 L/h
- CL/F, Median [1]: 93.423 L/h
- Plasma concentration, Arithmetic Mean [1]: 0.00 ng/mL
- Plasma concentration, Median [1]: 0.00 ng/mL
- CL/F, Arithmetic Mean [2]: 89.904 L/h
- CL/F, Geometric Mean [2]: 81.335 L/h
- CL/F, Median [2]: 77.251 L/h
- Plasma concentration, Arithmetic Mean [2]: 0.00 ng/mL
- Plasma concentration, Median [2]: 0.00 ng/mL
- CL/F, Arithmetic Mean [3]: 68.404 L/h
- CL/F, Geometric Mean [3]: 65.546 L/h
- CL/F, Median [3]: 69.489 L/h
- Plasma concentration, Arithmetic Mean [3]: 0.00 ng/mL
- Plasma concentration, Median [3]: 0.00 ng/mL
- AUC(0-t) (oral, Mild vs Normal: Mild hepatic impairment, paired analysis, read-out: AUC0-t, Geometric Least Squares Mean, Test): 2080 ng·h/mL
- AUC(0-inf) (oral, Mild vs Normal: Mild hepatic impairment, paired analysis, read-out: AUC0-∞, Geometric Least Squares Mean, Test): 2520 ng·h/mL
- Cmax (oral, Mild vs Normal: Mild hepatic impairment, paired analysis, read-out: Cmax, Geometric Least Squares Mean, Test): 182 ng/mL
- AUC(0-t) (oral, Mild vs Normal: matched Normal hepatic function, paired analysis, read-out: AUC0-t, Geometric Least Squares Mean, Reference): 2820 ng·h/mL
- AUC(0-inf) (oral, Mild vs Normal: matched Normal hepatic function, paired analysis, read-out: AUC0-∞, Geometric Least Squares Mean, Reference): 3020 ng·h/mL
- Cmax (oral, Mild vs Normal: matched Normal hepatic function, paired analysis, read-out: Cmax, Geometric Least Squares Mean, Reference): 303 ng/mL
- AUC(0-t) (oral, Moderate vs Normal: Moderate hepatic impairment, paired analysis, read-out: AUC0-t, Geometric Least Squares Mean, Test): 2380 ng·h/mL
- AUC(0-inf) (oral, Moderate vs Normal: Moderate hepatic impairment, paired analysis, read-out: AUC0-∞, Geometric Least Squares Mean, Test): 2430 ng·h/mL
- Cmax (oral, Moderate vs Normal: Moderate hepatic impairment, paired analysis, read-out: Cmax, Geometric Least Squares Mean, Test): 210 ng/mL
- AUC(0-t) (oral, Moderate vs Normal: matched Normal hepatic function, paired analysis, read-out: AUC0-t, Geometric Least Squares Mean, Reference): 2550 ng·h/mL
- AUC(0-inf) (oral, Moderate vs Normal: matched Normal hepatic function, paired analysis, read-out: AUC0-∞, Geometric Least Squares Mean, Reference): 2980 ng·h/mL
- Cmax (oral, Moderate vs Normal: matched Normal hepatic function, paired analysis, read-out: Cmax, Geometric Least Squares Mean, Reference): 247 ng/mL
- AUC(0-t) (po, Mild Hepatic Impairment, 200 mg single oral dose, read-out: AUC0-t, Arithmetic Mean): 2550 ng·h/mL
- AUC(0-t) (po, Mild Hepatic Impairment, 200 mg single oral dose, read-out: AUC0-t, Geometric Mean): 2070 ng·h/mL
- AUC(0-t) (po, Mild Hepatic Impairment, 200 mg single oral dose, read-out: AUC0-t, Median): 1940 ng·h/mL
- AUC(0-inf) (po, Mild Hepatic Impairment, 200 mg single oral dose, read-out: AUC0-∞, Arithmetic Mean): 2840 ng·h/mL
- AUC(0-inf) (po, Mild Hepatic Impairment, 200 mg single oral dose, read-out: AUC0-∞, Geometric Mean): 2310 ng·h/mL
- AUC(0-inf) (po, Mild Hepatic Impairment, 200 mg single oral dose, read-out: AUC0-∞, Median): 2140 ng·h/mL
- Cmax (po, Mild Hepatic Impairment, 200 mg single oral dose, read-out: Cmax, Arithmetic Mean): 291 ng/mL
- Cmax (po, Mild Hepatic Impairment, 200 mg single oral dose, read-out: Cmax, Geometric Mean): 182 ng/mL
- Cmax (po, Mild Hepatic Impairment, 200 mg single oral dose, read-out: Cmax, Median): 202 ng/mL
- Vd/F (po, Mild Hepatic Impairment, 200 mg single oral dose, read-out: VZ/F, Arithmetic Mean): 1830 L
- Vd/F (po, Mild Hepatic Impairment, 200 mg single oral dose, read-out: VZ/F, Geometric Mean): 1400 L
- Vd/F (po, Mild Hepatic Impairment, 200 mg single oral dose, read-out: VZ/F, Median): 1100 L
- half-life (po, Mild Hepatic Impairment, 200 mg single oral dose, read-out: t1/2, Arithmetic Mean (converted)): 13.3 ± 5.58 h
- half-life (po, Mild Hepatic Impairment, 200 mg single oral dose, read-out: t1/2, Geometric Mean (converted)): 12.4 h
- half-life (po, Mild Hepatic Impairment, 200 mg single oral dose, read-out: t1/2, Median (converted)): 12.3 h
- Tmax (po, Mild Hepatic Impairment, 200 mg single oral dose, read-out: tmax, Arithmetic Mean): 3.6 h
- Tmax (po, Mild Hepatic Impairment, 200 mg single oral dose, read-out: tmax, Geometric Mean): 2.8 h
- Tmax (po, Mild Hepatic Impairment, 200 mg single oral dose, read-out: tmax, Median): 2.5 h
- concentration at 0.5 h [4]: 41.5 ng/mL
- concentration at 0.5 h [5]: 29.4 ng/mL
- concentration at 0.5 h [6]: 30.2 ng/mL
- concentration at 1 h [4]: 178 ng/mL
- concentration at 1 h [5]: 112 ng/mL
- concentration at 1 h [6]: 149 ng/mL
- concentration at 2 h [4]: 279 ng/mL
- concentration at 2 h [5]: 165 ng/mL
- concentration at 2 h [6]: 194 ng/mL
- concentration at 3 h [4]: 220 ng/mL
- concentration at 3 h [5]: 138 ng/mL
- concentration at 3 h [6]: 155 ng/mL
- concentration at 4 h [4]: 164 ng/mL
- concentration at 4 h [5]: 112 ng/mL
- concentration at 4 h [6]: 95.8 ng/mL
- concentration at 6 h [4]: 122 ng/mL
- concentration at 6 h [5]: 95.4 ng/mL
- concentration at 6 h [6]: 91.3 ng/mL
- concentration at 8 h [4]: 96 ng/mL
- concentration at 8 h [5]: 77.8 ng/mL
- concentration at 8 h [6]: 68.5 ng/mL
- concentration at 12 h [4]: 66.6 ng/mL
- concentration at 12 h [5]: 54.9 ng/mL
- concentration at 12 h [6]: 43.9 ng/mL
- concentration at 16 h [4]: 54.3 ng/mL
- concentration at 16 h [5]: 45.3 ng/mL
- concentration at 16 h [6]: 39.6 ng/mL
- concentration at 24 h [4]: 34.5 ng/mL
- concentration at 24 h [5]: 29 ng/mL
- concentration at 24 h [6]: 26 ng/mL
- concentration at 36 h [4]: 16.1 ng/mL
- concentration at 36 h [5]: 15.2 ng/mL
- concentration at 36 h [6]: 13.8 ng/mL
- concentration at 48 h [4]: 8.5 ng/mL
- concentration at 48 h [5]: 9.97 ng/mL
- concentration at 48 h [6]: 7.26 ng/mL
- AUC(0-t) (po, Moderate Hepatic Impairment, 200 mg single oral dose, read-out: AUC0-t, Arithmetic Mean): 2590 ng·h/mL
- AUC(0-t) (po, Moderate Hepatic Impairment, 200 mg single oral dose, read-out: AUC0-t, Geometric Mean): 2380 ng·h/mL
- AUC(0-t) (po, Moderate Hepatic Impairment, 200 mg single oral dose, read-out: AUC0-t, Median): 2450 ng·h/mL
- AUC(0-inf) (po, Moderate Hepatic Impairment, 200 mg single oral dose, read-out: AUC0-∞, Arithmetic Mean): 2660 ng·h/mL
- AUC(0-inf) (po, Moderate Hepatic Impairment, 200 mg single oral dose, read-out: AUC0-∞, Geometric Mean): 2460 ng·h/mL
- AUC(0-inf) (po, Moderate Hepatic Impairment, 200 mg single oral dose, read-out: AUC0-∞, Median): 2590 ng·h/mL
- Cmax (po, Moderate Hepatic Impairment, 200 mg single oral dose, read-out: Cmax, Arithmetic Mean): 239 ng/mL
- Cmax (po, Moderate Hepatic Impairment, 200 mg single oral dose, read-out: Cmax, Geometric Mean): 210 ng/mL
- Cmax (po, Moderate Hepatic Impairment, 200 mg single oral dose, read-out: Cmax, Median): 180 ng/mL
- Vd/F (po, Moderate Hepatic Impairment, 200 mg single oral dose, read-out: VZ/F, Arithmetic Mean): 2250 L
- Vd/F (po, Moderate Hepatic Impairment, 200 mg single oral dose, read-out: VZ/F, Geometric Mean): 2020 L
- Vd/F (po, Moderate Hepatic Impairment, 200 mg single oral dose, read-out: VZ/F, Median): 2090 L
- half-life (po, Moderate Hepatic Impairment, 200 mg single oral dose, read-out: t1/2, Arithmetic Mean (converted)): 18.7 ± 3.97 h
